Reference: ChEMBL document CHEMBL1201862, “PubChem BioAssay data set” (2004)
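Test compounds were applied to cells in 96-well plates for 48 hours at 5 doses. GI50: concentration for 50% inhibition of growth.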 Activity calls are given as the source filed them. Cut-off read from the data, not from the text of the source: active = GI50 up to about 1.1 µM and inactive = higher.

Experiments:
Test in all cases: inhibition of tumour cell growth, NCI panel, 48 h
SF-268 = system: SF-268
MCF7 = system: MCF7
UACC-257 = system: UACC-257
COLO 205 = system: COLO 205
RXF 393 = system: RXF 393
SF-539 = system: SF-539
HCT-116 = system: HCT-116
CCRF-CEM = system: CCRF-CEM
RPMI-8226 = system: RPMI-8226
A498 = system: A498
Malme-3M = system: Malme-3M
UO-31 = system: UO-31
SK-MEL-2 = system: SK-MEL-2
NCI/ADR-RES = system: NCI/ADR-RES
SW-620 = system: SW-620
HOP-92 = system: HOP-92
NCI-H23 = system: NCI-H23
HCC 2998 = system: HCC 2998
PC-3 = system: PC-3
HL-60 = system: HL-60
SNB-19 = system: SNB-19
MDA-MB-435 = system: MDA-MB-435
SK-OV-3 = system: SK-OV-3
T47D = system: T47D
CAKI-1 = system: CAKI-1
ACHN = system: ACHN
DU-145 = system: DU-145
NCI-H522 = system: NCI-H522
U-251 = system: U-251
OVCAR-4 = system: OVCAR-4
SF-295 = system: SF-295
UACC-62 = system: UACC-62
SK-MEL-5 = system: SK-MEL-5
MDA-MB-231 = system: MDA-MB-231
IGROV-1 = system: IGROV-1
HT-29 = system: HT-29
KM12 = system: KM12
OVCAR-3 = system: OVCAR-3
OVCAR-5 = system: OVCAR-5
MDA-N = system: MDA-N
LOX IMVI = system: LOX IMVI
EKVX = system: EKVX
OVCAR-8 = system: OVCAR-8
NCI-H226 = system: NCI-H226
A549 = system: A549
MOLT-4 = system: MOLT-4
M14 = system: M14
HCT-15 = system: HCT-15
HOP-62 = system: HOP-62
SN12C = system: SN12C
SR = system: SR
K562 = system: K562
BT-549 = system: BT-549
786-0 = system: 786-0
SNB-75 = system: SNB-75
Hs-578T = system: Hs-578T
TK-10 = system: TK-10
SK-MEL-28 = system: SK-MEL-28
NCI-H460 = system: NCI-H460

## CCOC(=O)NC(Nc1ccc(F)c(F)c1)(C(=O)OCC)C(F)(F)F (centres undefined)
SF-268
  GI50: > 100 µM (inactive)
MCF7
  GI50: > 100 µM (inactive)
UACC-257
  GI50: > 100 µM (inactive)
COLO 205
  GI50: > 60.4 µM (inactive)
RXF 393
  GI50: > 100 µM (inactive)
SF-539
  GI50: > 100 µM (inactive)
HCT-116
  GI50: > 40.8 µM (inactive)
CCRF-CEM
  GI50: > 100 µM (inactive)
RPMI-8226
  GI50: > 100 µM (inactive)
A498
  GI50: > 100 µM (inactive)
Malme-3M
  GI50: > 100 µM (inactive)
UO-31
  GI50: > 65.6 µM (inactive)
SK-MEL-2
  GI50: 17.5 µM (inactive)
NCI/ADR-RES
  GI50: > 68.5 µM (inactive)
SW-620
  GI50: 17.4 µM (inactive)
HOP-92
  GI50: > 100 µM (inactive)
NCI-H23
  GI50: > 100 µM (inactive)
HCC 2998
  GI50: > 100 µM (inactive)
PC-3
  GI50: > 80.5 µM (inactive)
HL-60
  GI50: 20.4 µM (inactive)
SNB-19
  GI50: > 100 µM (inactive)
MDA-MB-435
  GI50: 5.69 µM (inactive)
SK-OV-3
  GI50: > 100 µM (inactive)
T47D
  GI50: 18.2 µM (inactive)
CAKI-1
  GI50: > 100 µM (inactive)
ACHN
  GI50: 27 µM (inactive)
DU-145
  GI50: > 62.8 µM (inactive)
NCI-H522
  GI50: > 100 µM (inactive)
U-251
  GI50: > 100 µM (inactive)
OVCAR-4
  GI50: > 46.3 µM (inactive)
SF-295
  GI50: 74 µM (inactive)
UACC-62
  GI50: 0.186 µM (active)
SK-MEL-5
  GI50: 13.8 µM (inactive)
MDA-MB-231
  GI50: > 100 µM (inactive)
IGROV-1
  GI50: > 28.1 µM (inactive)
HT-29
  GI50: > 100 µM (inactive)
KM12
  GI50: 3.23 µM (inactive)
OVCAR-3
  GI50: > 100 µM (inactive)
OVCAR-5
  GI50: > 100 µM (inactive)
MDA-N
  GI50: > 100 µM (inactive)
LOX IMVI
  GI50: 0.361 µM (active)
EKVX
  GI50: > 100 µM (inactive)
OVCAR-8
  GI50: 46 µM (inactive)
NCI-H226
  GI50: > 100 µM (inactive)
A549
  GI50: > 100 µM (inactive)
MOLT-4
  GI50: > 100 µM (inactive)
M14
  GI50: 0.826 µM (active)
HCT-15
  GI50: > 100 µM
HOP-62
  GI50: > 100 µM (inactive)
SN12C
  GI50: > 100 µM (inactive)
SR
  GI50: > 100 µM (inactive)
K562
  GI50: 17.8 µM (inactive)
BT-549
  GI50: > 100 µM (inactive)
786-0
  GI50: > 100 µM (inactive)
SNB-75
  GI50: 98.9 µM (inactive)
Hs-578T
  GI50: > 25.9 µM (inactive)
TK-10
  GI50: > 100 µM (inactive)
SK-MEL-28
  GI50: > 100 µM (inactive)
NCI-H460
  GI50: > 100 µM (inactive)
